Reference: US9439975B2, “Small efficient cell penetrating peptides derived from the scorpion toxin maurocalcine” (Commissariat A L'Energie Atomique Et Aux Energies …, priority 2011, dated 2016)
Entries after “also recorded” stand apart in the source; their conditions may differ. Square brackets hold non-standard residues; d marks the D form. Primed or numbered codes have the meaning given here. Ends that are not written are not given here. Cy5″ = Cy5 dye, coupled as maleimide to the C-terminal Cys; Abu = CC[C@H](N)C(=O)O; Cy5 = Cy5 label

Assays:
F98 rat glioma cell line = experiment: Flow cytometry of dose-dependent cell penetration in F98 cells; type: cell-based; settings: Cy5-labeled peptides
Protocol: (§1) Chinese hamster ovary (CHO) and F98 rat glioma cell lines (from ATCC) were maintained at 37° C. in 5% CO2 in F-12K nutrient medium (INVITROGEN) supplemented with 10% (v/v) heat-inactivated fetal bovine serum (INVITROGEN) and 10,000 units/ml streptomycine and penicillin (INVITROGEN) for the CHO cells, and 2% heat-inactivated fetal bovine serum and 100 units/ml streptomycine and penicillin for the F98 cells
(§2) CHO and F98 cells were incubated with various concentrations of Cy5-labeled peptides in F-12K culture medium without serum at 37° C. for 2 hrs. The cells were then washed with PBS to remove excess extracellular peptide and treated with 1 mg/ml trypsin (INVITROGEN) for 5 min at 37° C. to detach cells from the surface, and centrifuged at 200 g before suspension in PBS. For experiments with the macropinocytosis inhibitor, amiloride, CHO cells were initially washed with F-12K and preincubated for 30 min at 37° C. with 1 mM amiloride (SIGMA). The cells were then incubated for 2 hrs at 37° C. with 1 μM of the Cy5-MCa analogues. For all these experimental conditions, flow cytometry analyses were performed with live cells using a Becton Dickinson flow cytometer LSR II or an Accuri® flow cytometer (BD BIOSCIENCES). Data were obtained and analyzed using FCS express software (DE NOVO) or Accuri® proprietary software CFlow sampler. Live cells were gated by forward/side scattering from a total of 10,000 events.
(§3) Cy5-labeled peptides derived from MCaUF1-9 were synthesized and assayed by confocal microscopy or flow cytometry as described in example 1.

F98 cell line = experiment: Confocal microscopy of peptide penetration in F98 cell line, comparison with Tat; type: cell-based, rat
Protocol: (§4) For analysis of the subcellular localization of MCa-Cy5 analogues in living cells, cell cultures were incubated with the fluorescent peptides for 2 hrs, and then washed with phosphate-buffered saline (PBS) alone. The plasma membrane was stained with 5 μg/ml rhodamine-conjugated concanavalin A (MOLECULAR PROBES) for 5 min. Cells were washed once more. Live cells were then immediately analyzed by confocal laser scanning microscopy using a Leica TCS-SPE operating system. Rhodamine (580 nm) and Cy5 (670 nm) were sequentially excited and emission fluorescence were collected in z-confocal planes of […] steps.
as §3

CHO cells [1] = experiment: Flow cytometry of cell penetration of Cy5-labeled peptides in CHO cells; type: cell-based, Chinese hamster; settings: for dose-dependent cell penetration: concentrations up to 33 μM; for cell penetration (fluorescence accumulation within cells): 2 hrs incubation, 3 μM peptide, trypsin treatment
Protocol: Each peptide was labeled with Cy5 according to the manufacturer's protocol (GE HEALTHCARE). Peptides were dissolved at 1 mg/ml in 0.1 M Na2CO3 buffer, pH 9.3. 300 μl of the solubilized peptides were added to Cy5-maleimide containing tubes. The mixtures were incubated during 2 hrs at room temperature and then purified by HPLC using an analytical Vydac C18 column. Elution of the Cy5-labeled peptides was performed with a 10-60% acetonitrile linear gradient containing 0.1% trifluoroacetic acid. The pure peak fractions were lyophilized and peptides quantified by UV spectrophotometer at 649 nm.
as §1, §2

CHO cells [2] = experiment: Confocal microscopy of subcellular localization of Cy5-labeled peptides in living CHO cells (rhodamine-concanavalin A membrane stain); type: cell-based, Chinese hamster; settings: 2 hrs; for Cy5-positive pixels rhodamine-positive (colocalization with the plasma membrane indicator): FIG. 3; for Rhodamine-positive staining also Cy5-positive (pixels): Cy5/rhodamine colocalization
Protocol: as §4

CHO cells [3] = experiment: Amiloride sensitivity of peptide cell entry (macropinocytosis inhibition), flow cytometry; type: cell-based, Chinese hamster; settings: for inhibition of cell penetration by amiloride: 2 hrs, peptide with or without 5 mM amiloride (FIG. 4A); for amiloride-sensitivity of cell penetration: Cy5 as cargo, flow cytometry (FIG. 4)
Protocol: as §2, with “For experiments with the macropinocytosis inhibitor, amiloride, CHO cells were initially washed with F-12K and preincubated for 30 min at 37° C. with 1 mM amiloride (SIGMA). The cells were then incubated for 2 hrs at 37° C. with 1 μM of the Cy5-MCa analogues.” left out

[4] = target: ryanodine receptor type 1 (RyR1) (Oryctolagus cuniculus, UniProt P11716); settings: earlier reports; cited from earlier work
cells = settings: streptavidine as cargo, earlier studies; cited from earlier work

Chain of ryanodine receptor type 1 (RyR1) (P11716 whole entry): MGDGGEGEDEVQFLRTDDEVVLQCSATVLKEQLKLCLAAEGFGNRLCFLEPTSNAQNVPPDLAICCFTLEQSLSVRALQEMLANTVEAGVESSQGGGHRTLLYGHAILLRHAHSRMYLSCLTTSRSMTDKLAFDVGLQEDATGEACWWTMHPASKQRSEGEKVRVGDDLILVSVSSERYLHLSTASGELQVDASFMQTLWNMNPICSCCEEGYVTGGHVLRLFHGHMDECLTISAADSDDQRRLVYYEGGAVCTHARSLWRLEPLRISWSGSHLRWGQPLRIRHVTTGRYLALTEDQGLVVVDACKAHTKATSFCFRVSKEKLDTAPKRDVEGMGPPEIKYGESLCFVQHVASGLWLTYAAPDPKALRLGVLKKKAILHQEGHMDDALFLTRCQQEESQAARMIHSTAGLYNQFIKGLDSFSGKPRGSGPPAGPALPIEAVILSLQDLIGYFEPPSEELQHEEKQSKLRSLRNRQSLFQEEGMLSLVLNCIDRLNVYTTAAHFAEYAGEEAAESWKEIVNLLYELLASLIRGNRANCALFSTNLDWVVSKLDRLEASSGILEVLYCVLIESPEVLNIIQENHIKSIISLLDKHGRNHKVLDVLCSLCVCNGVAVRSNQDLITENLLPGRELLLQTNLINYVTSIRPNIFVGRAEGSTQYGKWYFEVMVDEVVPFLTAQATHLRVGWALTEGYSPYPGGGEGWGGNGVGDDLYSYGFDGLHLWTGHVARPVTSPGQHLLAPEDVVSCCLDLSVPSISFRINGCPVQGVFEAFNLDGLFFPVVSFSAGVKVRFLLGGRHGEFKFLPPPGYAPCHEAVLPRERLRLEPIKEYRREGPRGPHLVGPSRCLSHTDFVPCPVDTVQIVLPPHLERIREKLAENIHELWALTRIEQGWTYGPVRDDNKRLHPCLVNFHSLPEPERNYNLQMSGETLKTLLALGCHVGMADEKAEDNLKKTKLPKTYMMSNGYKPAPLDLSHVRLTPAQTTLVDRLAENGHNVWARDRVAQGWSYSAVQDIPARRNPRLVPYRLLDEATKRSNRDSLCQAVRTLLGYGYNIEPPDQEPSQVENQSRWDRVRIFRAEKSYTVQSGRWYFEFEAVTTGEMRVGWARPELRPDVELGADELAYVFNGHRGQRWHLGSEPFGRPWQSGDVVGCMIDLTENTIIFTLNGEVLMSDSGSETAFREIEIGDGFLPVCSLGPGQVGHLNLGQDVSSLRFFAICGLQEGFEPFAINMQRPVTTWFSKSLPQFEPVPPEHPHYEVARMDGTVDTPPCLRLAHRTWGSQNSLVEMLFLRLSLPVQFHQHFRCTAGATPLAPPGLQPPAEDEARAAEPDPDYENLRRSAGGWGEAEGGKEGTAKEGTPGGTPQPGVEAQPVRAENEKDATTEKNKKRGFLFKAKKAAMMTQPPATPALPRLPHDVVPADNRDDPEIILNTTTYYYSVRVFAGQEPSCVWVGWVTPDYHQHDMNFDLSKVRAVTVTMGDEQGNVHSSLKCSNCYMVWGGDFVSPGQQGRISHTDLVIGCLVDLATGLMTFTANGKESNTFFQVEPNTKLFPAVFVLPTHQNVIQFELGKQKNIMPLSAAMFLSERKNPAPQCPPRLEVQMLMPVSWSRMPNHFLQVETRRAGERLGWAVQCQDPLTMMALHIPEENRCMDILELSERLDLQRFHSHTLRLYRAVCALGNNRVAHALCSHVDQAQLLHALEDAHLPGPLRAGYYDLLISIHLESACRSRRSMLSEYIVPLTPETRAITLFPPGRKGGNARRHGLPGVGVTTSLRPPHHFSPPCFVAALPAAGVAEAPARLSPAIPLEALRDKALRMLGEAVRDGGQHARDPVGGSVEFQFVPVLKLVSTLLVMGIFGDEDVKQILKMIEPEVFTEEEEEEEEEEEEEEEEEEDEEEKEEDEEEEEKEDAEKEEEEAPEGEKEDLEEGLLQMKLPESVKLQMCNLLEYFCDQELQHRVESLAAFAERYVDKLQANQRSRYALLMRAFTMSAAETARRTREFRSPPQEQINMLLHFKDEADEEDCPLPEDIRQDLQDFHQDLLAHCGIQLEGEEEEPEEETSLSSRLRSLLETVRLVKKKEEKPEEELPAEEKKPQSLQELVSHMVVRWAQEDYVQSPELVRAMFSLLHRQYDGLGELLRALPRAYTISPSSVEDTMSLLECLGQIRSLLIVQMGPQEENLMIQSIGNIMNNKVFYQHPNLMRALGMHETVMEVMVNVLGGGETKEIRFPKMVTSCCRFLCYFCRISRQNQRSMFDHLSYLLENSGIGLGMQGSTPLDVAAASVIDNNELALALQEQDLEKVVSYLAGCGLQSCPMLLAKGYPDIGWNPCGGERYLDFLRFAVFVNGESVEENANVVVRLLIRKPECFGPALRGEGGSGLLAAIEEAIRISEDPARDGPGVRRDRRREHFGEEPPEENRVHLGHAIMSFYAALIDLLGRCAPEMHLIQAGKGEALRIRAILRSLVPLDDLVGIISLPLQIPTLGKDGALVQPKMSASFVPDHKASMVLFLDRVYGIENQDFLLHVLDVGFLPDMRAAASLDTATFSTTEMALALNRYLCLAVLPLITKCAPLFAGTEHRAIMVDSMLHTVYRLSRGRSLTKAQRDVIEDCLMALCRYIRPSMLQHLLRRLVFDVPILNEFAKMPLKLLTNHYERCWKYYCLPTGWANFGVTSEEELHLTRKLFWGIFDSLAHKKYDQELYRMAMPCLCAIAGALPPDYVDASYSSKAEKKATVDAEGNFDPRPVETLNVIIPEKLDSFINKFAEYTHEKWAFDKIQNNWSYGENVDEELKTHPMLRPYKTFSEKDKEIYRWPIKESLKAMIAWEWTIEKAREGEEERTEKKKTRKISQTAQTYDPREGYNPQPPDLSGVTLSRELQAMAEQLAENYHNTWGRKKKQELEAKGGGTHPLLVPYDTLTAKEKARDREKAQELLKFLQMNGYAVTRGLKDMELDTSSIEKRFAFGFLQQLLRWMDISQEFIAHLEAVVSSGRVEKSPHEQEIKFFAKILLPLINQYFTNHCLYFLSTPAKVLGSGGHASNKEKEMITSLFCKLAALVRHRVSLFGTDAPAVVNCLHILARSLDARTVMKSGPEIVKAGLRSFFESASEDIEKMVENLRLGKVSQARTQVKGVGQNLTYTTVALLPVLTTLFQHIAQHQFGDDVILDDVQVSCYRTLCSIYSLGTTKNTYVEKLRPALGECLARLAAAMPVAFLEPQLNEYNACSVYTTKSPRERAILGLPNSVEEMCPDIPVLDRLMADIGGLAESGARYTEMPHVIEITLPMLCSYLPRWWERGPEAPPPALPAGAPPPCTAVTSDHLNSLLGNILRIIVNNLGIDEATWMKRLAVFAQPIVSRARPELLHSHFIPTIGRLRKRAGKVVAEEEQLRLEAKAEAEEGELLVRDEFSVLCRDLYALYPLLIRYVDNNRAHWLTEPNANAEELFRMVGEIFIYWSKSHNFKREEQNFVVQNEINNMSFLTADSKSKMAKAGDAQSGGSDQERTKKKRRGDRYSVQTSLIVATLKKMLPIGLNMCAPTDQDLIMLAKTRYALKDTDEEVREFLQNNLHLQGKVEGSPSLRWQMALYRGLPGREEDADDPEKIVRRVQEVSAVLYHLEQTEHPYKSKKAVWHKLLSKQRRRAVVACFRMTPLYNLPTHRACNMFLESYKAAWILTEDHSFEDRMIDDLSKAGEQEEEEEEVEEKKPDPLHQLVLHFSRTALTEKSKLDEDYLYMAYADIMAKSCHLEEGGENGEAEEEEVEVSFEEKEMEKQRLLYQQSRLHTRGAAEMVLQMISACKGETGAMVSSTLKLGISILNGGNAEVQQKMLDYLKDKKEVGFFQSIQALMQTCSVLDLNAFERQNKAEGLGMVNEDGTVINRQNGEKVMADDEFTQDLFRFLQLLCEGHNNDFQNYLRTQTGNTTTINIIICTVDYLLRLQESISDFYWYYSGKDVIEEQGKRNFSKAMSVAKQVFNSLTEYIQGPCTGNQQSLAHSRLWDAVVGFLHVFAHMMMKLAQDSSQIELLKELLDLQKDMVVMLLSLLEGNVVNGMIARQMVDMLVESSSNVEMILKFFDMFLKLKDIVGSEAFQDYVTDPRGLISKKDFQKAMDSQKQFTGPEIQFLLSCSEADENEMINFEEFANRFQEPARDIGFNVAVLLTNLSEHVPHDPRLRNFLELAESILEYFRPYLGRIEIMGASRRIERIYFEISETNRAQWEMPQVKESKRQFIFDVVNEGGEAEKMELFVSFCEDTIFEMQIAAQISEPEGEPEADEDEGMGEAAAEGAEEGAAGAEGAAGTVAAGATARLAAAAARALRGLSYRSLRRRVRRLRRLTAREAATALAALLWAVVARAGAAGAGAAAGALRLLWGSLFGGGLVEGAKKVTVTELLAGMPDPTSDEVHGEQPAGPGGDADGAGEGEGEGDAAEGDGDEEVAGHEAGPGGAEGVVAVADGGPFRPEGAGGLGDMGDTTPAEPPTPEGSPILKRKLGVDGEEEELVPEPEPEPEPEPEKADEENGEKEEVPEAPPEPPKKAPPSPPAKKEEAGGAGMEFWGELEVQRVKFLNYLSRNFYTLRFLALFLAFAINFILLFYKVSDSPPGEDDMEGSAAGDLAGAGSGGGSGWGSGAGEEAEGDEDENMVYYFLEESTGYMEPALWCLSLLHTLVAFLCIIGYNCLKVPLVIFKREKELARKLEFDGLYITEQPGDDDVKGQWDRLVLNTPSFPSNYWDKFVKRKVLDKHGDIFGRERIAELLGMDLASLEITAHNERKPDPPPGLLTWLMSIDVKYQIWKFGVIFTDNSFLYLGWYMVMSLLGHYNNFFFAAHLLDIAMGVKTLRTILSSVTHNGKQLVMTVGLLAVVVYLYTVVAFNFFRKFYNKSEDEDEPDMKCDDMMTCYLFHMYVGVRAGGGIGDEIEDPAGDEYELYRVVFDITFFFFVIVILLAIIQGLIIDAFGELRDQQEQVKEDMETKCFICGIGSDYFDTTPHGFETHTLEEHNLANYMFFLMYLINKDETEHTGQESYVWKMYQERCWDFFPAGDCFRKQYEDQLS

Substance: GDWLPHLKL (MCa1-9, C3W variant) [MCaUF1-9(W3)]
- cell penetration (CPP efficiency) (F98 rat glioma cell line): ones of the best performing CPPs
- penetration compared with 3 μM Tat (F98 cell line; 1 μM peptide): proved better CPP than Tat at 3 μM

Substance: GDaLPHLKL (GD[Abu]LPHLKL) [MCaUF1-9]
- dose-dependent cell penetration (CHO cells [1]; 2 hrs): penetrates better at low concentration
- cell penetration (CPP efficiency) (F98 rat glioma cell line): ones of the best performing CPPs
- penetration compared with 3 μM Tat (F98 cell line; 3 μM peptide): proved better CPP than Tat at 3 μM

Substance: GDaLPHLKLC (GD[Abu]LPHLKLC) [MCaUF1-9-C]
- cell penetration (fluorescence accumulation within cells) (CHO cells [1]): showed CPP properties; also recorded: better CPP than MCaUF1-15-C

Substance: GDaLPHLKLaKENKDC (GD[Abu]LPHLKL[Abu]KENKDC) [MCaUF1-15-C]
- cell penetration (fluorescence accumulation within cells) (CHO cells [1]): showed CPP properties

Substance: GDaWPHLKL (GD[Abu]WPHLKL) [MCaUF1-9(Abu3-W4)]
- penetration compared with 3 μM Tat (F98 cell line; 1 μM peptide): proved better CPP than Tat at 3 μM

Substance: GTNIEKRaRC (GTNIEKR[Abu]RC) [MCaUF25-33-C]
- cell penetration (fluorescence accumulation within cells) (CHO cells [1]): have also CPP properties

Substance: KDaaSKKaKRRG (KD[Abu][Abu]SKK[Abu]KRRG) [MCaUF14-25]
- dose-dependent cell penetration (CHO cells [1]; 2 hrs): yields the greatest cell entry of the dye

Substance: KDalKHLQR (KD[Abu]IKHLQR) [HadUF3-11]
- cell penetration (CPP efficiency) (F98 rat glioma cell line): ones of the best performing CPPs
- cell penetration (CPP efficiency) (F98 rat glioma cell line; listed as HadUF3-9(Abu5)): perform better as CPP than the maurocalcine derived peptide MCaUF1-9(Abu3)

Substance: MCaUF1-9-C-Cy5: MCaUF1-9-C (SEQ ID NO: 136, GDaLPHLKLC) labeled with Cy5 (GD[Abu]LPHLKLC(Cy5″))
- concentration with detectable cell penetration (CHO cells [1]; 2 hrs): 10 nM
- dose-dependent cell penetration (CHO cells [1]; 2 hrs): best performing peptide for cell penetration at low concentrations
- Cy5-positive pixels rhodamine-positive (colocalization with the plasma membrane indicator) (CHO cells [2]): higher values of colocalization
- intracellular / plasma membrane distribution (CHO cells [2]; confocal microscopy): dots appear at higher concentrations within one pole of the cell

Substance: MCaUF1-15-C-Cy5: MCaUF1-15-C (SEQ ID NO: 135) labeled with Cy5 (GD[Abu]LPHLKL[Abu]KENKDC(Cy5″))
- inhibition of cell penetration by amiloride (CHO cells [3]): 39%
- amiloride-sensitivity of cell penetration (CHO cells [3]): higher amiloride-sensitivity than MCaUF1-33-C-Cy5

Substance: MCaUF1-20-C-Cy5: MCaUF1-20-C (SEQ ID NO: 134) labeled with Cy5 (GD[Abu]LPHLKL[Abu]KENKD[Abu][Abu]SKKC(Cy5″))
- dose-dependent cell penetration (CHO cells [1]; 2 hrs): performing as well as MCaUF8-33-C-Cy5
- Cy5-positive pixels rhodamine-positive (colocalization with the plasma membrane indicator) (CHO cells [2]): 30.4±1.4%

Substance: MCaUF1-33-C-Cy5: MCaUF1-33-C (SEQ ID NO: 140) labeled with Cy5 on the C-terminal Cys (GD[Abu]LPHLKL[Abu]KENKD[Abu][Abu]SKK[Abu]KRRGTNIEKR[Abu]RC(Cy5))
- cell penetration (fluorescence accumulation within cells) (CHO cells [1]): penetrated efficiently within CHO cells
- dose-dependent cell penetration (CHO cells [1]; 2 hrs): least-performing cell penetrating peptide
- Cy5-positive pixels rhodamine-positive (colocalization with the plasma membrane indicator) (CHO cells [2]): 10.1±2.6%
- degree of accumulated cell fluorescence (CHO cells [2]; confocal microscopy): penetrate the least
- inhibition of cell penetration by amiloride (CHO cells [3]): 19.6%

Substance: MCaUF1-33: unfolded full-length MCa, six Cys replaced by 2-aminobutyric acid (Abu) (GD[Abu]LPHLKL[Abu]KENKD[Abu][Abu]SKK[Abu]KRRGTNIEKR[Abu]R; not fully specified (residue 33))
- pharmacological action on / interaction with RyR1 [4]: unable to interact with MCa's target, the ryanodine receptor RyR1
- amiloride sensitivity of cell entry (cells): largely sensitive to amiloride

Substance: MCaUF8-33-C-Cy5: MCaUF8-33-C (SEQ ID NO: 141) labeled with Cy5 (KL[Abu]KENKD[Abu][Abu]SKK[Abu]KRRGTNIEKR[Abu]RC(Cy5″))
- dose-dependent cell penetration (CHO cells [1]; 2 hrs): did not show any sign of saturation; also recorded: no saturation of cell entry
- intracellular / plasma membrane distribution (CHO cells [2]; confocal microscopy): dots appear at higher concentrations within one pole of the cell

Substance: MCaUF11-33-C-Cy5: MCaUF11-33-C (SEQ ID NO: 142) labeled with Cy5 (KENKD[Abu][Abu]SKK[Abu]KRRGTNIEKR[Abu]RC(Cy5″))
- Cy5-positive pixels rhodamine-positive (colocalization with the plasma membrane indicator) (CHO cells [2]): 21.3±2.6%
- intracellular / plasma membrane distribution (CHO cells [2]; confocal microscopy): dots appear at higher concentrations within one pole of the cell
- amiloride-sensitivity of cell penetration (CHO cells [3]): higher amiloride-sensitivity than MCaUF1-33-C-Cy5

Substance: MCaUF14-25-C-Cy5: MCaUF14-25-C (SEQ ID NO: 139) labeled with Cy5 (KD[Abu][Abu]SKK[Abu]KRRGC(Cy5″))
- dose-dependent cell penetration (CHO cells [1]; 2 hrs): yields the greatest fluorescence accumulation
- intracellular / plasma membrane distribution (CHO cells [2]; confocal microscopy): sub-plasma membrane rim localization was more evident
- amiloride-sensitivity of cell penetration (CHO cells [3]): higher amiloride-sensitivity than MCaUF1-33-C-Cy5

Substance: MCaUF14-33-C-Cy5: MCaUF14-33-C (SEQ ID NO: 143) labeled with Cy5 (KD[Abu][Abu]SKK[Abu]KRRGTNIEKR[Abu]RC(Cy5″))
- Rhodamine-positive staining also Cy5-positive (pixels) (CHO cells [2]): best performing
- Cy5-positive pixels rhodamine-positive (colocalization with the plasma membrane indicator) (CHO cells [2]): higher values of colocalization

Substance: MCaUF18-33-C-Cy5: MCaUF18-33-C (SEQ ID NO: 137) labeled with Cy5 (SKK[Abu]KRRGTNIEKR[Abu]RC(Cy5″))
- dose-dependent cell penetration (CHO cells [1]; 2 hrs): performed drastically better than the other truncated peptides
- Rhodamine-positive staining also Cy5-positive (pixels) (CHO cells [2]): best performing
- amiloride-sensitivity of cell penetration (CHO cells [3]): enhance rather than inhibit the cell penetration

Substance: MCaUF20-33-C-Cy5: MCaUF20-33-C (SEQ ID NO: 144) labeled with Cy5 (K[Abu]KRRGTNIEKR[Abu]RC(Cy5″))
- Rhodamine-positive staining also Cy5-positive (pixels) (CHO cells [2]): best performing
- intracellular / plasma membrane distribution (CHO cells [2]; confocal microscopy): Diffuse membrane labeling
- amiloride-sensitivity of cell penetration (CHO cells [3]): enhance rather than inhibit the cell penetration

Substance: MCaUF22-33-C-Cy5: MCaUF22-33-C (SEQ ID NO: 145) labeled with Cy5 (KRRGTNIEKR[Abu]RC(Cy5″))
- Rhodamine-positive staining also Cy5-positive (pixels) (CHO cells [2]): best performing
- intracellular / plasma membrane distribution (CHO cells [2]; confocal microscopy): direct plasma membrane labeling

Substance: MCaUF25-33-C-Cy5: MCaUF25-33-C (SEQ ID NO: 146) labeled with Cy5 (GTNIEKR[Abu]RC(Cy5″))
- intracellular / plasma membrane distribution (CHO cells [2]; confocal microscopy): dots appear at higher concentrations within one pole of the cell; also recorded: Diffuse membrane labeling
- amiloride-sensitivity of cell penetration (CHO cells [3]): higher amiloride-sensitivity than MCaUF1-33-C-Cy5

Substance: SEKDalKHLQR (SEKD[Abu]IKHLQR) [HadUF1-11]
- cell penetration (CPP efficiency) (F98 rat glioma cell line): ones of the best performing CPPs
- cell penetration (CPP efficiency) (F98 rat glioma cell line; listed as HadUF1-11(Abu5)): perform better as CPP than the maurocalcine derived peptide MCaUF1-9(Abu3)
- penetration compared with 3 μM Tat (F98 cell line; 1 μM peptide): proved better CPP than Tat at 3 μM

Substance: SKKaKRRGTNIEKRaR (SKK[Abu]KRRGTNIEKR[Abu]R) [MCaUF18-33]
- amiloride-sensitivity of cell penetration (CHO cells [3]): macropinocytosis entry-independent

Substance: aLPHLKL ([Abu]LPHLKL) [MCaUF3-9]
- cell penetration (CPP efficiency) (F98 rat glioma cell line): ones of the best performing CPPs
- cell penetration (CPP efficiency) (F98 rat glioma cell line; listed as MCaUF3-9(Abu3)): efficient CPP
- penetration compared with 3 μM Tat (F98 cell line; 1 μM peptide): proved better CPP than Tat at 3 μM
